Laboratory results from patent publication US6011041A, “Use of anhydrovinblastine” (priority 1996, dated 2000).
Structures can show the parent of a compound that is named as a salt.

Tests used:
[1] = system: fast axoplasmic transport in nerve cells; conditions: cited from earlier work
[2] = relative to other vinca alkaloids; cited from earlier work
tumour = conditions: alkaloids extracted from Vinca rosea; cited from earlier work
human rhabdosarcomas = conditions: in vivo; cited from earlier work
nerves = conditions: vs vinblastine, vindesine; cited from earlier work
SKOV3 cells = assay: cytotoxicity on SKOV3 cells (FIG. 8); type: cell-based; conditions: Homo sapiens, SK-OV-3, 72 h; SKOV3, 3 day incubation
C-4 cells = assay: cytotoxicity on C-4 cells (FIG. 8); type: cell-based; conditions: 72 h; C-4, 3 day incubation
Experimental: A wide range of drug concentrations were exposed to tumour cells growing at log phase in 96-well microtitre plates. Cell concentrations depended on the cell line as well as the length of time to be cultured. Typically, P388 cells were plated at a concentration of 30,000, 2,000 and 750 cells per well for studies lasting 1, 3 and 7 days, respectively MCF7 cells were plated at a concentration of 7,000 and 1,500 cells per well for studies lasting 3 and 7 days, respectively. H460 cells were plated at a concentration of 2,500 and 1,000 cells per well for studies lasting 3 and 7 days, respectively. K562 cells were plated at a concentration of 1,500 and 10,000 cells per well for studies lasting 1 and 3 days, respectively. LS180 cells were plated at a concentration of 5,000 and […] cells per well for studies lasting 3 and 7 days, respectively. After plating all cell lines were incubated (CO2 incubator at 37° C., 5% CO2) for 24 hours prior to addition of the cytotoxic agent (See Table 1). Subsequently the plates were incubated for the indicated time period. […] After the sample was mixed through repeated pipetting, the colored product was measured using a plate reader operating at 570 nm. The absorbance values obtained for cells cultured in the absence of drug was assumed to represent 100% viability. […]

[3] = P388 tumour antitumor activity and maximum tolerated dose in BDF1 mice (FIGS. 6, 7); type: in vivo; conditions: mouse, in vivo, iv; BDF1 mice bearing P388 tumors, single i.v. injection
Experimental: (§1) Antitumour studies in mice focused on the P388 leukemia model. […] This is an ascitic tumour model that was generated by intraperitoneal inoculation of 1×10^6 P388 cells (derived from culture, with an original cell line obtained from the NCI tumour repository) in BDF1 mice (Charles Rivers). One day after tumour cell inoculation, mice were treated with a single intravenous injection of drug. Animal weight was monitored daily and tumour progression was measured as an increase in animal weight and through estimation of survival time. Therapy was described by a decrease in tumour progression and an increase in survival time relative to an untreated control group. Initial studies established the maximum therapeutic dose for AHVB. Subsequently comparative studies with vincristine and navelbine were initiated where animals were treated with each drug at the maximum therapeutic dose.
(§2) The in vivo antitumour activity of AHVB was compared to that of vincristine, navelbine in the BDF1-murine P388 model in the procedure as follows. P388 cells were derived from the ascities of previously injected female BDF1 mice (19-21 grams) P388 cells, from the NCI tumor repository were inoculated directly into mice. The cells arrive from NCI frozen in 1 ml aliquots. These samples were thawed rapidly at 37° C. and subsequently injected (within 1 hour) intraperitoneally into two mice, 0.5 ml per mouse. One week (7 days) after inoculation, the tumor cells were harvested by removing peritoneal fluid using a sterile syringe with a 22 gauge needle. The cells, pooled from two animals, were counted using a heamocytometer, diluted (RPMI media) to a concentration of 2×10^6 cells/ml and 0.5 ml was then re-injected into each of two BDF1 mice. Remaining cells were washed and placed into a DMSO containing media and frozen (in freezer packs that cool at a defined rate). This process was repeated weekly over a […]. Cells used for anti-tumor studies were collected from the third passage to the 20th passage. After the 20th passage the cells were no longer used for experimental studies. Newly established cells were derived from the frozen cells prepared as described above.
(§3) Groups (five mice per group) of female BDFI mice (Charles Rivers, Canada) were injected (intraperitoneal) with 10^6 P388 cells (as described above). One day after tumor cell inoculation, the mice were given a bolus intravenous injection of indicated drug via the lateral tail vein. […] Following administration of the test articles, animals were weighed daily for fourteen days and monitored for signs of stress twice daily for the first 14 days (once daily on weekends) and once daily for the remainder of the study. Severely distressed animals were terminated by CO2 asphyxiation and the time of death was recorded to occur on the following day. […]

P388 tumor = assay: as above; type: in vivo
Experimental: as §1, §2, §3

L1210 leukemia = conditions: cited from earlier work
[4] = system: non-small cell lung cancer; conditions: patients; cited from earlier work
[5] = system: cells derived from human lung cancer; conditions: cited from earlier work
murine P388 leukemia = conditions: cited from earlier work

## CC[C@]1(O)C[C@H]2CN(CCc3c([nH]c4ccccc34)[C@@](C(=O)OC)(c3cc4c(cc3OC)N(C=O)[C@H]3[C@@](O)(C(=O)OC)[C@H](OC(C)=O)[C@]5(CC)C=CCN6CC[C@]43[C@@H]65)C2)C1 [vincristine, Sulfate of 22-oxovincaleukoblastine]
[1]
  potency in blocking fast axoplasmic transport: more potent than vinblastine or vindesine
[2]
  terminal elimination phase of plasma clearance: extended terminal elimination phase of plasma clearance
tumour
  antitumour activity: significant antitumour activity
Human rhabdosarcomas
  activity in human rhabdosarcomas transplanted in nude mice: very effective
nerves
  uptake into nerves, times faster than the other drugs: 4 times

## CCC1=CC2CN(CCc3c([nH]c4ccccc34)C(C(=O)OC)(c3cc4c(cc3OC)N(C)C3C(O)(C(=O)OC)C(OC(C)=O)C5(CC)C=CCN6CCC43C65)C2)C1 (stereo not drawn) [AHVB, 3',4'-anhydrovinblastine]
SKOV3 cells
  IC50: 4000 nM
C-4 cells
  IC50: 20 nM
[3]
  MTD: 40 mg/kg
P388 tumor; BDF1 mice bearing P388, single i.v.
  times less toxic (on a weight basis) than vincristine: approximately 10 times
P388 tumor; maximum tolerated dose, AHVB 40 mg/kg vs vincristine 3 mg/kg, single i.v.
  antitumor activity (number of long term survivors, >60 days): significantly better than that observed for vincristine
P388 tumor; overall conclusion
  in vivo antitumor efficacy relative to other vinca alkaloids such as vincristine and navelbine: significant improvements in in vivo antitumor efficacy

## CCC1=C[C@@H]2CN(C1)Cc1c([nH]c3ccccc13)[C@@](C(=O)OC)(c1cc3c(cc1OC)N(C)[C@H]1[C@@](O)(C(=O)OC)[C@H](OC(C)=O)[C@]4(CC)C=CCN5CC[C@]31[C@@H]54)C2 [navelbine, 3',4'-didehydro-4'-deoxy-C'-norvincaleukoblastine-di-L-tartrate]
L1210 leukemia
  potency against L1210 leukemia: less potent than vinbiastine and vincristine
[4]
  clinical utility in non-small cell lung cancer: support its utility in treating non-small cell lung cancer
[5]
  activity against cells derived from human lung cancer: active
Murine P388 leukemia
  potency against murine P388 leukemia: less potent than vinbiastine and vincristine
